Results taken from US10987360B2, “Hepatitis B core protein modulators” (Assembly Biosciences, Inc., priority 2016, dated 2021).
Read-outs that look alike come from different tables or passages of the source.

Key:
[1] = test system: HBV viral load in AD38 cells; assay: Viral load production in AD38 cells, quantitative PCR of the core sequence in supernatant; type: cell-based; conditions: Hepatitis B virus, 144 h, 6 days incubation
Method: (§1) Assay Measuring Activity of Compounds on Viral Production in and on Viability of AD38 Cells
(§2) AD38 cells grown in a 175 cm flask with “Growth Medium” (DMEM/F12 (1:1) (cat #SH30023.01, Hyclone, 1×Pen/step (cat #: 30-002-CL, Mediatech, Inc), 10% FBS (cat #: 101, Tissue Culture Biologics), 250 μg/mL G418 (cat #: 30-234-CR, Mediatech, Inc), 1 μg/mL Tetracycline (cat #: T3325, Teknova)) were detached with 0.25% trypsin. Tetracycline-free “treatment medium” (15 mL DMEM/F12 (1:1) (cat #SH30023.01, Hyclone, 1×Pen/step (cat #: 30-002-CL, Mediatech, Inc), with 2% FBS, Tet-system approved (cat #: 631106, Clontech) were then added to mix and spun at 1300 rpm for 5 min. Pelleted cells were then re-suspended/washed with 50 mL of 1×PBS 2 times and 10 mL Treatment Medium one time. AD38 cells were then re-suspended with 10 mL of Treatment Medium and counted. Wells of a collagen coated 96-well NUNC microtiter plate were seeded at 50,000/well in 180 μL of Treatment Medium, and 20 μL of in treatment media with either 10% DMSO (Control) or a 10× solution of compound in 10% DMSO was added. Plates were incubated for 6 days at 37° C.
Viral load production was assayed by quantitative PCR of the core sequence. Briefly, 5 μL of clarified supernatant was added to a PCR reaction mixture that contained forward primers HBV-f 5′-CTGTGCCTTGGGTGGCTTT-3′, Reverse primers HBV-r 5′-[…]-3′ and Fluorescent TaqMan™ Probes HBV-probe 5′-FAM/AGCTCCAAA/ZEN/[…]/3IABkFQ-3′ in Quanta Biosciences PerfeCTa® qPCR Toughmix®, and was subsequently on an Applied Biosystems VIIA7 in a final volume of 20 μL. The PCR mixture was incubated at 45° C. for 5 minutes, then 95° C. for 10 min, followed by 40 cycles of 10 seconds at 95° C. and 20 seconds at 60° C. Viral load was quantitated against known standards by using ViiA™ 7 Software. Viral load in the supernatant from wells with treated cells were compared against viral load in supernatant from DMSO control wells (≥3 per plate).

[2] = test system: AD38 cells; assay: Viability of AD38 cells, Promega CellTiter-Glo; type: cell-based; conditions: 6 days incubation, controls being 100%; for AD38 Viability Normalized Result (CPAM/DMSO %) at 10 μM: Table 6, compounds of Group 4
Method: as §1, §2
At the end of compound treatment period cell viability was assessed using a Promega CellTiter-Glo protocol. All supernatant was removed the previously treated 96-well microtiter plate, and 50 μL Tetracycline-free treatment medium (DMEM/F12 (1:1), 1×Pen/step (cat #: 30-002-CL, Mediatech, Inc), with 2% FBS, Tet-system approved (cat #: 631106, Clontech), and 1% DMSO was added back to each well. Another 50 μL of CellTiter-Glo reagent solution (Promega, G7573) was then added at room temperature and the contents mixed for 2 minutes on an orbital shaker to induce cell lysis. This was followed by incubation at room temperature for 10 minutes to stabilize the luminescent signal. The luminescence was recorded for 0.2 seconds per well on a Tecan multimode platereader (Infinite M1000 pro). The luminescent signal from each well was normalized against that of untreated (DMSO) control wells. All results in Tables 3-6 were reported with percent viability (with controls being 100%).

[3] = Table 4, compounds of Group 2, read-out: AD38 Viral Load (%) (VL with cmpd/VL in DMSO control) at 10 μM
[4] = Table 3, compounds of Group 1, read-out: AD38 Viral Load (%) (VL with cmpd/VL in DMSO control) at 10 μM
[5] = Table 5, compounds of Group 3, read-out: AD38 Viral Load (%) (VL with cmpd/VL in DMSO control) at 10 μM
[6] = Table 6, compounds of Group 4, read-out: AD38 Viral Load (CpAM/DMSO %) at 10 μM

| Compound | activity at 10 µM [1, 3] | AD38 Viability Normalized Result (cmpd/DMSO %) at 10 μM ([2]; Table 4, compounds of Group 2) | activity at 10 µM [1, 4] | AD38 Viability Normalized Result (cmpd/DMSO %) at 10 μM ([2]; Table 3, compounds of Group 1) | further results |
| --- | --- | --- | --- | --- | --- |
| N#Cc1ccc(-c2ncc(CNC(=O)c3ccc4c(c3)NC(=O)[C@H]3CCCCN3S4(=O)=O)s2)c(F)c1 (single isomer, unassigned) [C25-02-Isomer II] | 0.6% | 111% |  |  |  |
| N#Cc1ccc(-c2ncc(CNC(=O)c3ccc4c(c3)NC(=O)[C@@H]3CCCCN3S4(=O)=O)s2)c(F)c1 (single isomer, unassigned) [C25-02-Isomer I] | 3% | 108% |  |  |  |
| O=C(NCc1cnc(-n2cccn2)s1)c1ccc2c(c1)NC(=O)[C@H]1CCCCN1S2(=O)=O (single isomer, unassigned) [C25-04-Isomer II] | 1.7% | 99% |  |  |  |
| O=C(NCc1cnc(-n2cccn2)s1)c1ccc2c(c1)NC(=O)[C@@H]1CCCCN1S2(=O)=O (single isomer, unassigned) [C25-04-Isomer I] | 8.3% | 104% |  |  |  |
| Cc1ncc(CNC(=O)c2ccc3c(c2)NC(=O)c2ccncc2S3)s1 [Compound 576] | 11.7% | 98% |  |  |  |
| O=C(NCc1cnc(-c2ccccc2)s1)c1ccc2c(c1)NC(=O)c1ccncc1S2 [Compound 578] | 3% | 100% |  |  |  |
| O=C(NCc1cnc(-c2ccc(O)cc2)s1)c1ccc2c(c1)NC(=O)c1ccncc1S2 [Compound 762] | 45.6% | 102% |  |  |  |
| O=C1CCC(c2ncc(CNC(=O)c3ccc4c(c3)NC(=O)c3ccccc3S4(=O)=O)s2)CC1 [Compound 818, 11-oxo-N-((2-(4-oxocyclohexyl)thiazol-5-yl)methyl)-10,11-dihydrodibenzo[b,f][1,4]thiazepine-8-carboxamide 5,5-dioxide] |  |  | 1.3% | 84% |  |
| Cl.NC1CCC(Cc2ncc(CNC(=O)c3ccc4c(c3)NC(=O)c3ccccc3S4(=O)=O)s2)CC1 (stereo not drawn) [Compound 884, N-((2-((4-aminocyclohexyl)methyl)thiazol-5-yl)methyl)-11-oxo-10,11-dihydrodibenzo[b,f][1,4]thiazepine-8-carboxamide 5,5-dioxide hydrochloride] |  |  | 15.1% | 94% |  |
| O=C(NCc1cnc(C2CCC(O)CC2)s1)c1ccc2c(c1)NC(=O)c1ccccc1S2(=O)=O (stereo not drawn) [Compound 924, N-((2-(4-hydroxycyclohexyl)thiazol-5-yl)methyl)-11-oxo-10,11-dihydrodibenzo[b,f][1,4]thiazepine-8-carboxamide 5,5-dioxide] |  |  | 0.7% | 95% |  |
| CC(C)(C)OC(=O)N1CCC(c2ncc(CNC(=O)c3ccc4c(c3)NC(=O)c3ccccc3S4(=O)=O)s2)CC1 [Compound 926-A] |  |  | 3.6% | 98% |  |
| O=C(NCc1cnc(CN2CCOCC2)s1)c1ccc2c(c1)NC(=O)c1ccccc1S2(=O)=O [Compound 927] |  |  | 4.7% | 92% |  |
| CC1(C)CCC(c2ncc(CNC(=O)c3ccc4c(c3)NC(=O)c3ccccc3S4(=O)=O)s2)C1 (stereo not drawn) [Compound 979] |  |  | 0.5% | 59% |  |
| O=C1CCC(c2ncc(CNC(=O)c3ccc4c(c3)NC(=O)c3ccccc3S4(=O)=O)s2)C1 (stereo not drawn) [Compound 980-A, 11-oxo-N-((2-(3-oxocyclopentyl)thiazol-5-yl)methyl)-10,11-dihydrodibenzo[b,f][1,4]thiazepine-8-carboxamide 5,5-dioxide] |  |  | 1.2% | 97% |  |
| COC1(OC)CCC(c2ncc(CNC(=O)c3ccc4c(c3)NC(=O)c3ccccc3S4(=O)=O)s2)C1 (stereo not drawn) [Compound 980-B, N-((2-(3,3-dimethoxycyclopentyl)thiazol-5-yl)methyl)-11-oxo-10,11-dihydrodibenzo[b,f][1,4]thiazepine-8-carboxamide 5,5-dioxide] |  |  | 0.9% | 93% |  |
| O=C(NCc1cnc(C(F)(F)F)s1)c1ccc2c(c1)NC(=O)c1ccncc1S2(=O)=O [Compound 1020] | 6.1% | 97% |  |  |  |
| N#Cc1ccc(-c2ncc(CNC(=O)c3ccc4c(c3)NC(=O)c3ccncc3S4(=O)=O)s2)c(F)c1 [Compound 1021] | 0.3% | 96% |  |  |  |
| C[C@H](N)C(=O)N1CCC(c2ncc(CNC(=O)c3ccc4c(c3)NC(=O)c3ccccc3S4(=O)=O)s2)CC1.Cl [Compound 1034, N-((2-(1-(L-alanyl)piperidin-4-yl)thiazol-5-yl)methyl)-11-oxo-10,11-dihydrodibenzo[b,f][1,4]thiazepine-8-carboxamide 5,5-dioxide hydrochloride] |  |  | 67.7% | 106% |  |
| Cc1c(C(=O)NCc2cnn(-c3nccs3)c2)ccc2c1NC(=O)c1ccccc1S2(=O)=O [Compound 1153, 9-methyl-11-oxo-N-((1-(thiazol-2-yl)-1H-pyrazol-4-yl)methyl)-10,11-dihydrodibenzo[b,f][1,4]thiazepine-8-carboxamide 5,5-dioxide] |  |  |  |  | activity at 10 µM [1, 5]: 2.1%; AD38 Viability Normalized Result (cmpd/DMSO %) at 10 μM ([2]; Table 5, compounds of Group 3): 92% |
| O=C(NCc1cnn(-c2nccs2)c1)c1ccc2c(c1)NC(=O)c1ccccc1S2(=O)=O [Compound 1155, 11-oxo-N-((1-(thiazol-2-yl)-1H-pyrazol-4-yl)methyl)-10,11-dihydrodibenzo[b, f][1,4]thiazepine-8-carboxamide 5,5-dioxide] |  |  |  |  | activity at 10 µM [1, 5]: 0.6%; AD38 Viability Normalized Result (cmpd/DMSO %) at 10 μM ([2]; Table 5, compounds of Group 3): 104% |
| CC1=C(C)C(=O)Nc2cc(C(=O)NCc3cnc(C(F)(F)F)s3)ccc2O1 [Compound C1-01] | 27.9% | 106% |  |  |  |
| CC1=C(C)C(=O)Nc2cc(C(=O)NCc3cnc(-c4ccc(C#N)cc4F)s3)ccc2O1 [Compound C1-02] | 20.4% | 103% |  |  |  |
| Cc1cc(=O)[nH]c2cc(C(=O)NCc3cnc(C(F)(F)F)s3)ccc12 [Compound C2-01, 4-Methyl-2-oxo-N-((2-(trifluoromethyl)thiazol-5-yl)methyl)-1,2-dihydroquinoline-7-carboxamide] |  |  |  |  | activity at 10 µM [1, 6]: 69.7%; AD38 Viability Normalized Result (CPAM/DMSO %) at 10 μM [2]: 113% |
| CC(C)c1cc(=O)[nH]c2cc(C(=O)NCc3cnc(C(F)(F)F)s3)ccc12 [Compound C3-01, 4-Isopropyl-2-oxo-N-((2-(trifluoromethyl)thiazol-5-yl)methyl)-1,2-dihydroquinoline-7-carboxamide] |  |  |  |  | activity at 10 µM [1, 6]: 44.6%; AD38 Viability Normalized Result (CPAM/DMSO %) at 10 μM [2]: 105% |
